Measurements taken from patent US20140148454A1, “SUBSTITUTED AMINO-ACRYLCARBOXAMIDES AS KCNQ2/3 MODULATORS” (GRÜNENTHAL GMBH, priority 2012, published 2014).
pEC50: −log10 of the molar value.

Assays:
[1] = target: T1, KCNQ2/3 channels (Homo sapiens, UniProt O43525+O43526); assay: Fluorescence assay using a voltage sensitive dye (fluorimetry); type: cell-based; conditions: CHO-K1 cells expressing KCNQ2/3 channels
T1 construct: expressed in transfected cells; host or cells: CHO-K1 cells kept under selection antibiotics
Description: Method I. Fluorescence Assay Using a Voltage Sensitive Dye (Fluorimetry) […] CHO-K1 cells expressing KCNQ2/3 channels are cultivated adherently at 37° C., 5% CO2 and 95% humidity in cell culture bottles (e.g. 80 cm^2 TC flasks, Nunc) with DMEM-high glucose (Sigma Aldrich, D7777) including 10% FCS (PAN Biotech, e.g. 3302-P270521) or alternatively MEM Alpha Medium (1×, liquid, Invitrogen, #22571), 10% fetal calf serum (FCS) (Invitrogen, #10270-106, heat-inactivated) and the necessary selection antibiotics.
Before being sown out for the measurements, the cells are washed with 1×DPBS buffer Ca^2+/Mg^2+-free (e.g. Invitrogen, #14190-094) and detached from the bottom of the culture vessel by using Accutase (PAA Laboratories, #L11-007) (incubation with Accutase for 15 min at 37° C.). The cell number is determined using a CASY™ cell counter (TCC, Scharfe System). Depending on the optimal density for each individual cell line, 20,000-30,000 cells/well/100 μl are seeded onto 96-well Corning™ CeIIBIND™ assay plates (Flat Clear Bottom Black Polystyrene Microplates, #3340). Freshly seeded cells are then left to settle for one hour at room temperature, followed by incubation for 24 hours at 37° C., 5% CO2 and 95% humidity.
The voltage-sensitive fluorescent dye from the Membrane Potential Assay Kit (Red™ Bulk format part R8123 for FLIPR, MDS Analytical Technologies™) is prepared by dissolving the contents of one vessel Membrane Potential Assay Kit Red Component A in 200 ml of extracellular buffer (ES buffer, 120 mM NaCl, 1 mM KCl, 10 mM HEPES, 2 mM CaCl2, 2 mM MgCl2, 10 mM glucose; pH 7.4). After removal of the nutrient medium, the cells are washed once with 200 μl of ES buffer, then loaded for 45 min at room temperature in 100 μl of dye solution in the dark.
Fluorescence measurements are carried out in a BMG Labtech FLUOstar™, BMG Labtech NOVOstar™ or BMG Labtech POLARstar™ instrument (525 nm excitation, 560 nm emission, Bottom Read mode). After incubation with the dye, 50 μl of the test substances in the desired concentrations, or 50 μl of ES buffer for control purposes, are applied to the wells of the assay plate and incubated for 30 min at room temperature while being shielded from light. The fluorescence intensity of the dye is then measured for 5 min and the fluorescence value F1 of each well is thus determined at a given, constant time. 15 μl of a KCl solution are then added to each well (final concentration of potassium ions 92 mM). The change in fluorescence intensity is subsequently monitored until all the relevant values have been obtained (mainly 5-30 min). At a given time post KCl application, a fluorescence value F2 is determined, in this case at the time of the fluorescence peak.
For calculation, the fluorescence intensity F2 is corrected for the fluorescence intensity F1, and the activity (ΔF/F) of the target compound on the potassium channel is determined as follows:
In order to determine whether a substance has agonistic activity, is determined by adding to the well only the buffer solution instead of the test substance, determining the value F1K of the fluorescence intensity, adding the potassium ions as described above, and measuring a value F2K of the fluorescence intensity. F2K and F1K are then calculated as follows: […]
A substance has an agonistic activity on the potassium channel if it is possible to conclude that a target compound has agonistic activity if Calculations of EC50 and IC50 values are carried out with the aid of ‘Prism v4.0’ software (GraphPad Software™).

[2] = tested on: withdrawal reflex of the rat tail (tail flick) to radiant heat beam; assay: Low-intensity tail flick test (rat); type: in vivo; conditions: dose 10 mg/kg (dose in brackets), MPE = percentage of maximum possible effect
Description: Method II. Low-Intensity Tail Flick Test (Rat)
In the low-intensity tail flick test, the determination of the antinociceptive effect of the compounds according to the invention towards an acute noxious thermal stimulus is carried out by measuring the withdrawal reflex of the rat tail (tail flick) in response to a radiant heat beam (analgesia meter; model 2011 of the company Rhema Labortechnik, Hofheim, Germany) according to the method described by D'Amour and Smith (J. Pharm. Exp. Ther. 72, 74 79 (1941). To this end, the rats were placed in a plexiglas restrainer, and a low-intensity radiant heat beam (48° C.) was focused onto the dorsal surface of the tail root. The stimulus intensity was adjusted to result in a mean pre-drug control withdrawal latency of about 7 s, thus also allowing a supraspinal modulation of the spinally mediated acute nociceptive reflex. […] Before administration of a compound according to the invention, the animals were pre-tested twice in the course of five minutes and the mean of these measurements was calculated as the pre-test mean. The antinociceptive effect was determined at 20, 40 and 60 min after peroral compound administration. The antinociceptive effect was calculated based on the increase in the tail withdrawal latency according to the following formula and is expressed as percentage of the maximum possible effect (MPE [%]): […]

Question: `CCCc1cc(N2CCOCC2)nc(C)c1C(=O)NCc1ccc(Cl)cc1` [Example 4, N-[(4-Chlorophenyl)-methyl]-2-methyl-6-morpholin-4-yl-4-propyl-pyridine-3-carboxylic acid amide] was tested. Which Emax ([1]; relative to retigabine = 100%, read-out: Fluorimetry % efficacy (retigabine = 100%)) did it give?
Answer: 187%

Question: And the pEC50 ([1]; voltage-sensitive dye, read-out: Fluorimetry EC50/IC50)?
Answer: 6.58

Question: And the “Low intensity tail flick, rat, peroral, MPE (dose)” value [2]?
Answer: 42 (10) %
